These results are taken from patent US9550763B2, “Heterocyclic ring and carbocyclic derivative” (Shionogi & Co., Ltd., priority 2012, dated 2017).

For one assay, the target named is human P2X3 receptor (Homo sapiens (Human), UniProt P56373). Put plainly: Evaluation of human P2X3 receptor inhibitory activity (Test Example 1-2, FLIPR 384, 384-well, 150 nM ATP). The class given is cell-based. The note with it: C6BU-1 cell transfected with human P2X3 receptor gene; method of Test Example 1-2 (compounds I-301 to I-483); read-out: IC50 (human P2X3 receptor inhibitory activity). As for the experimental part: Stably expressing cell line (C6BU-1 cell transfected with human P2X3 receptor gene (GenBank accession number Y07683) was used. The cells were seeded in a 384-well microtiter plate at a concentration of 3000 cells/well and cultured in the medium (7.0% fetal bovine serum, 7.0% horse serum, 1% antibiotic and antifungal in DMEM) for one day at 37° C. under 5% carbon dioxide atmosphere. The medium was replaced with 4 μM Fluo-3-AM solution (20 mM HEPES, […], 5.27 mM KCl, 0.9 mM MgCl2, 1.26 mM CaCl2, 5.6 mM D-glucose, 2.5 mM probenecid, 0.5% BSA, and 0.04% Pluronic F-127, pH 7.5) and incubated at 37° C. under 5% dioxide carbon atmosphere for one hour. The plate was washed with washing buffer (20 mM HEPES, 137 mM NaCl, 5.27 mM KCl, 0.9 mM MgCl2, 1.26 mM CaCl2, 5.6 mM D-glucose, 2.5 mM probenecid, pH7.5), and each well was added with 20 μL of this buffer. The plate was placed in High-Throughput Screening System FLIPR 384 (Molecular Device Co.). Measurement of fluorescence intensity by FLIPR 384 was started, and 20 μL of DMSO solutions containing different concentrations of the test compound as prepared by dilution with dilution buffer (20 mM HEPES, 137 mM NaCl, 5.27 mM KCl, 0.9 mM MgCl2, 1.26 mM CaCl2, 5.6 mM D-glucose, 2.5 mM probenecid, 0.1% Pluronic F-127, pH 7.5) were dispensed to each well through the built-in automatic dispenser. Five minutes after, 150 nM ATP solution (25 μL) prepared by dilution with the dilution buffer was dispensed through the built-in automatic dispenser, and the measurement of fluorescence intensity was continued for 4 min. For each well, the specific maximum fluorescence intensity was calculated as the ratio of the maximum fluorescence intensity after addition of the ATP solution to the fluorescence intensity at the starting of the measurement. The 50% inhibitory concentration (IC50) was calculated under the assumption that the specific maximum fluorescence intensity without test compound is 0% inhibition and that the specific maximum fluorescence intensity when the dilution buffer was added in place of ATP solution is 100% inhibition, to evaluate the inhibitory activity of the test compound. The specific maximum fluorescence intensity and IC50 were calculated using Spotfire (Science & Technology Systems, Inc.)
Sequence of human P2X3 receptor (P56373 whole entry): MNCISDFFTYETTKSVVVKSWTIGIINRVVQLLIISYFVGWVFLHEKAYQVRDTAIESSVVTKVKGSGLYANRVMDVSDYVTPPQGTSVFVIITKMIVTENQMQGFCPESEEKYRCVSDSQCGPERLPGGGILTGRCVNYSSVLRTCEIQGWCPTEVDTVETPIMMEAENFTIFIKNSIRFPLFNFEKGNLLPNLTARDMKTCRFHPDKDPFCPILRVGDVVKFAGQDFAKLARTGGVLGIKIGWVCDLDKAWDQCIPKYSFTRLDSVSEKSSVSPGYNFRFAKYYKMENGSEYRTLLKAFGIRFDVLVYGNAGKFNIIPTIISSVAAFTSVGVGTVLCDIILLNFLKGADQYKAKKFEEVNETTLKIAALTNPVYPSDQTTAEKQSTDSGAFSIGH
The data of the compounds I-001 to I-300 are the results by the method mentioned in Test Example 1-1, and the data of the compounds I-301 to I-483 are the results by the method mentioned in Test Example 1-2.
For `CN(C)c1ncc(Nc2ccc(Oc3ccc(F)cn3)cc2)c(Cc2ccc(F)cc2)n1` [Compound I-481, 2-dimethylamino-4-(4-fluorobenzyl)-5-[4-(5-fluoro-2-pyridyloxy)phenylamino]pyrimidine], the IC50 is below 30000 nM.

Take `O=C(O)c1cccc(Oc2ccc(Nc3nc4ccccc4n3Cc3ccc(F)cc3)cc2)n1` [Compound I-470]: the concentration for half-maximal inhibition (IC50) was below 30000 nM.

`O=C(O)c1cccc(Oc2ccc(Nc3nc4ccccc4n3Cc3ccc(Cl)cc3)cc2)n1` [Compound I-455]: the half-inhibitory concentration (IC50) is below 30000 nM.

As to `CN(C)c1ccc(Nc2ccc(Oc3ccc(F)cn3)cc2)c(Cc2ccc(Cl)cc2)c1` [Compound I-464, 1-(4-chlorobenzyl)-3-dimethylamino-6-[4-(5-fluoro-2-pyridyloxy)phenylamino]benzene], the IC50 was below 30000 nM.

Consider `COC(=O)c1cccc(Oc2ccc(Nc3ccn(C(C)C)c(=O)c3Cc3ccc(Cl)cc3)cc2)n1` [Compound I-465, 3-(4-chloro-benzyl)-1-isopropyl-4-[4-(6-methoxycarbonyl-2-pyridyloxy)phenylamino]pyridin-2(1H)-one], for which the IC50 is below 30000 nM.

The same assay, now with this note: human P2X3 receptor in C6BU-1 cells; Test Example 1-2 (compounds I-301 to I-483); read-out: P2X3 IC50.
For `COC(=O)[C@@H](C)Cn1c(=O)cc(Nc2ccc(Oc3ccc(F)cn3)c(C)n2)n(Cc2ccc(Cl)cc2)c1=O` [Compound I-362], the IC50 turned out to be 7 nM.

As to `O=C(Nc1cnoc1)c1cn(Cc2ccc(Cl)cc2)c(Nc2ccc(Oc3cccc(F)n3)cc2)nc1=O` [Compound I-397], the IC50 was determined as 56 nM.

Turning to `Cc1nnc(-c2c[nH]/c(=N\c3ccc(Oc4ccon4)cc3)n(Cc3ccc(Cl)cc3)c2=O)o1` [Compound I-349], the half-inhibitory concentration (IC50) was 73 nM.

Consider `Cc1noc(-c2c[nH]/c(=N\c3ccc(Oc4cccc(C#N)n4)cc3)n(Cc3ccc(Cl)cc3)c2=O)n1` [Compound I-310], for which the 50% inhibitory concentration (IC50) worked out at 16 nM.

For the compound `N#Cc1cccc(Oc2ccc(/N=c3\[nH]cc(Nc4ccon4)c(=O)n3Cc3ccc(Cl)cc3)cc2)n1` [Compound I-319], the IC50 is 19 nM.

With `COC(=O)c1cccc(Oc2ccc(/N=c3\[nH]cc(C4CCOCC4)c(=O)n3Cc3ccc(Cl)cc3)cc2)n1` [Compound I-476], the IC50 stood at 66 nM.

Consider `NC(=O)c1cccc(Oc2ccc(/N=c3\[nH]cc(N4CCCC4=O)c(=O)n3Cc3ccc(Cl)cc3)cc2)n1` [Compound I-335], for which the IC50 came to 227 nM.

In the case of `O=C(NCc1ccoc1)c1cn(Cc2ccc(Cl)cc2)c(Nc2ccc(Oc3cccc(F)n3)cc2)nc1=O` [Compound I-419], the 50% inhibitory concentration (IC50) came to 55 nM.

Consider `CC(=O)OCc1nnc(-c2c[nH]/c(=N\c3ccc(Oc4ccon4)cc3)n(Cc3ccc(Cl)cc3)c2=O)o1` [Compound I-348], for which the 50% inhibitory concentration (IC50) is 76 nM.

With `O=C(NC1CCOCC1)c1cn(Cc2ccc(F)cc2F)c(Nc2ccc(Oc3cccc(F)n3)cc2)nc1=O` [Compound I-402], the IC50 stood at 9 nM.

As for `CC(C)[C@H](NC(=O)c1cn(Cc2ccc(Cl)cc2)c(Nc2ccc(Oc3cccc(F)n3)cc2)nc1=O)C(N)=O` [Compound I-380], the IC50 was 4 nM.

For the compound `CCC(=O)Nc1c[nH]/c(=N\c2ccc(Oc3cccc(CC(=O)O)c3)cc2)n(Cc2ccc(Cl)cc2)c1=O` [Compound I-355], the IC50 stood at 53 nM.

As for `COc1cn(Cc2ccc(Cl)cc2)c(Nc2ccc(Oc3cccc(C(=O)O)n3)cc2)nc1=O` [Compound I-404], the IC50 was determined as 102 nM.

For `CCn1c(=O)[nH]c(Nc2ccc(Oc3cccc(C#N)n3)cc2)c(Cc2ccc(Cl)cc2)c1=O` [Compound I-456, 5-(4-chlorobenzyl)-6-[4-(6-cyano-2-pyridyloxy)phenylamino]-3-ethylpyrimidin-2,4(1H,3H)-dione], the IC50 was determined as 9 nM.

On to `Cc1c[nH]c2ccc(Nc3ncc(NC(=O)C4CCOCC4)c(=O)n3Cc3ccc(Cl)cc3)cc12` [Compound I-414], for which the half-maximal inhibitory concentration (IC50) was found to be 392 nM.

Consider `CCC(=O)Nc1c[nH]/c(=N\c2ccc(Oc3ccc(C#N)nn3)cc2)n(Cc2ccc(Cl)cc2)c1=O` [Compound I-306], for which the IC50 is 19 nM.

For `CCC(=O)Nc1c[nH]/c(=N\c2ccc(Oc3cc(C)c(Cl)nn3)cc2)n(Cc2ccc(Cl)cc2)c1=O` [Compound I-432], the IC50 was 12 nM.

As to `N#Cc1cccc(Oc2ccc(/N=c3\[nH]cc(N4CCCC4=O)c(=O)n3Cc3ccc(Cl)cc3)cc2)n1` [Compound I-332], the half-inhibitory concentration (IC50) was 179 nM.

For the compound `CC(=O)NNC(=O)c1c[nH]/c(=N\c2ccc(Oc3ccon3)cc2)n(Cc2ccc(Cl)cc2)c1=O` [Compound I-347], the IC50 came to 152 nM.

Turning to `CSc1cccc(Oc2ccc(/N=c3\[nH]cc(N4CCCC4=O)c(=O)n3Cc3ccc(Cl)cc3)cc2)n1` [Compound I-334], the IC50 came out at 838 nM.

For the compound `CC(C)c1c[nH]/c(=N\c2ccc(Oc3cccc(C(=O)O)n3)cc2)n(Cc2ccc(Cl)cc2)c1=O` [Compound I-353], the concentration for half-maximal inhibition (IC50) came out at 6 nM.

With `O=C(NC1CCCC1)c1cn(Cc2ccc(Cl)cc2)c(Nc2ccc(Oc3cccc(F)n3)cc2)nc1=O` [Compound I-376], the half-inhibitory concentration (IC50) turned out to be 40 nM.

For `COCCn1c(=O)cc(Nc2ccc(Oc3ccc(F)nc3)cc2)n(Cc2ccc(Cl)cc2)c1=O` [Compound I-342], the half-inhibitory concentration (IC50) is 10 nM.

Regarding `O=C(Nc1c[nH]/c(=N\c2ccc(Oc3ccc(C(F)(F)F)nn3)cc2)n(Cc2ccc(Cl)cc2)c1=O)C1CCOCC1` [Compound I-435], the IC50 worked out at 3 nM.

On to `CC(C)c1c[nH]/c(=N\c2ccc(Oc3ccnc(C(=O)O)c3)cc2)n(Cc2ccc(Cl)cc2)c1=O` [Compound I-409], for which the IC50 amounted to 24 nM.

Take `O=C(NCC1CCOC1)c1cn(Cc2ccc(Cl)cc2)c(Nc2ccc(Oc3cccc(F)n3)cc2)nc1=O` (stereo not drawn) [Compound I-396]: the half-inhibitory concentration (IC50) was 25 nM.

On to `COCCn1c(=O)cc(Nc2ccc(Oc3cccc(C(=O)O)n3)c(C)n2)n(Cc2ccc(Cl)cc2)c1=O` [Compound I-324], for which the IC50 amounted to 14 nM.

Consider `O=C(NCC(F)(F)F)c1c[nH]/c(=N\c2ccc(Oc3ccon3)cc2)n(Cc2ccc(Cl)cc2)c1=O` [Compound I-452], for which the IC50 was 98 nM.

For `CC(c1ccc(F)cc1)n1cc(C(=O)NC2CCOCC2)c(=O)nc1Nc1ccc(Oc2cccc(F)n2)cc1` (stereo not drawn) [Compound I-352], the concentration for half-maximal inhibition (IC50) was determined as 369 nM.

Turning to `O=C(NC1CCCOC1)c1cn(Cc2ccc(Cl)cc2)c(Nc2ccc(Oc3cccc(F)n3)cc2)nc1=O` (stereo not drawn) [Compound I-383], the IC50 was determined as 13 nM.

As for `Cc1nc(Nc2cc(=O)n(C(C)C)c(=O)n2Cc2ccc(Cl)cc2)ccc1Oc1cccc(C#N)c1` [Compound I-340], the IC50 was found to be 8 nM.

As for `O=C(NCCCO)c1cn(Cc2ccc(Cl)cc2)c(Nc2ccc(Oc3cccc(F)n3)cc2)nc1=O` [Compound I-418], the IC50 worked out at 45 nM.

On to `Cc1nc(Nc2cc(=O)n(CC(F)(F)C(=O)O)c(=O)n2Cc2ccc(Cl)cc2)ccc1Oc1ccc(F)cn1` [Compound I-405], for which the IC50 came to 5 nM.

Take `O=c1c(-c2nnco2)c[nH]/c(=N\c2ccc(Oc3ccon3)cc2)n1Cc1ccc(Cl)cc1` [Compound I-439]: the IC50 came to 47 nM.

Consider `Cc1cc(CNC(=O)c2cn(Cc3ccc(Cl)cc3)c(Nc3ccc(Oc4cccc(F)n4)cc3)nc2=O)no1` [Compound I-420], for which the IC50 amounted to 88 nM.

As to `C#CCNC(=O)c1c[nH]/c(=N\c2ccc(Oc3ccon3)cc2)n(Cc2ccc(Cl)cc2)c1=O` [Compound I-344], the IC50 is 4 nM.

Turning to `Cc1nnc(-c2c[nH]/c(=N\c3ccc(Oc4cccc(C#N)n4)cc3)n(Cc3ccc(Cl)cc3)c2=O)o1` [Compound I-327], the IC50 is 34 nM.

Broadly, the IC50 is the concentration that inhibits the measured activity by half.
